Legend:
cells = settings: high levels of 4μ8C; cited from earlier work
[1] = target: kinase domain of IRE1 alpha (His-tagged kinase dead construct KR, AA G547-L977, D688N) (Homo sapiens (Human), UniProt O75460, D688N); experiment: IRE1α TR-FRET competition binding assay; settings: competition with Kinase Tracer 236, 0.1 μM; one hour at room temperature
Procedure, shortened: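 Sf9-expressed kinase-dead KR construct (0.006 μM final) pre-incubated 1 h at 4° C with Eu anti-His antibody (0.002 μM) in HEPES pH 7.5/MgCl2/Brij/DTT buffer; Kinase Tracer 236 (ATP-competitive probe, 0.1 μM final) added with compound. 1 h at room temperature; tracer displacement read by TR-FRET (665/615 nm).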

Chain of kinase domain of IRE1 alpha (His-tagged kinase dead construct KR, AA G547-L977, D688N) (O75460 547-977 D688N): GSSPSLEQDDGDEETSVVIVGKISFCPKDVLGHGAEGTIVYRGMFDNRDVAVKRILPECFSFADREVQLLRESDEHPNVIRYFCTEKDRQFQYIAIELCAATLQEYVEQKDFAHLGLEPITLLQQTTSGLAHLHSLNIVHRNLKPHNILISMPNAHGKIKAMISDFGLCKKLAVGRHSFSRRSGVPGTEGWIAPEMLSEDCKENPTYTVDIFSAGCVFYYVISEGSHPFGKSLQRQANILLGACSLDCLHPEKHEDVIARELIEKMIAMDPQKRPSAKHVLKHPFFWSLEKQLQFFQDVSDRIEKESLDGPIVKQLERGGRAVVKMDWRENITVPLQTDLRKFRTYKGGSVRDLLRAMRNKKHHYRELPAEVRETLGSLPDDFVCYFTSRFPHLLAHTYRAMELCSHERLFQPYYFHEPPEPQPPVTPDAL

Row | Structure (SMILES) | toxicity in cells (cells) | IC50 [1] [nM]
1 | Cc1cc(=O)oc2c(C=O)c(O)ccc12 [Compound 4μ8C] | no measurable toxicity | –
2 | O=S(=O)(Nc1c(F)cc(Oc2ncccc2-c2ccnc(N[C@@H]3CNC[C@@H](F)C3)n2)c(F)c1F)C1CCCC1 [Compound 369, N-(2,3,6-Trifluoro-4-((3-(2-(((3S,5S)-5-fluoropiperidin-3-yl)amino)pyrimidin-4-yl)pyridin-2-yl)oxy)phenyl)cyclopentanesulfonamide] | – | 1.2
3 | O=S(=O)(Cc1ccc(C(F)(F)F)cc1)Nc1c(F)cc(Oc2ncccc2-c2ccnc(N[C@@H]3CNC[C@@H](F)C3)n2)c(F)c1F [Compound 370, N-(2,3,6-Trifluoro-4-((3-(2-(((3S,5S)-5-fluoropiperidin-3-yl)amino)pyrimidin-4-yl)pyridin-2-yl)oxy)phenyl)-1-(4-(trifluoromethyl)phenyl)methanesulfonamide] | – | 2
4 | O=S(=O)(Cc1ccc(C(F)F)cc1)Nc1c(F)cc(Oc2ncccc2-c2ccnc(N[C@@H]3CNC[C@@H](F)C3)n2)c(F)c1F [Compound 371, 1-(4-(Difluoromethyl)phenyl)-N-(2,3,6-trifluoro-4-((3-(2-(((3S,5S)-5-fluoropiperidin-3-yl)amino)pyrimidin-4-yl)pyridin-2-yl)oxy)phenyl)methanesulfonamide] | – | 0.3
5 | O=S(=O)(Cc1ccc(F)cc1)Nc1c(F)cc(Oc2ncccc2-c2ccnc(N[C@@H]3CNC[C@@H](F)C3)n2)c(F)c1F [Compound 372, 1-(4-Fluorophenyl)-N-(2,3,6-trifluoro-4-((3-(2-(((3S,5S)-5-fluoropiperidin-3-yl)amino)pyrimidin-4-yl)pyridin-2-yl)oxy)phenyl)methanesulfonamide] | – | 0.2
6 | O=S(=O)(Cc1ccccc1C(F)(F)F)Nc1c(F)cc(Oc2ncccc2-c2ccnc(N[C@@H]3CNC[C@@H](F)C3)n2)c(F)c1F [Compound 373, N-(2,3,6-Trifluoro-4-((3-(2-(((3S,5S)-5-fluoropiperidin-3-yl)amino)pyrimidin-4-yl)pyridin-2-yl)oxy)phenyl)-1-(2-(trifluoromethyl)phenyl)methanesulfonamide] | – | 0.3
7 | O=S(=O)(Cc1cccc(C(F)(F)F)c1)Nc1c(F)cc(Oc2ncccc2-c2ccnc(N[C@@H]3CNC[C@@H](F)C3)n2)c(F)c1F [Compound 374, N-(2,3,6-Trifluoro-4-((3-(2-(((3S,5S)-5-fluoropiperidin-3-yl)amino)pyrimidin-4-yl)pyridin-2-yl)oxy)phenyl)-1-(3-(trifluoromethyl)phenyl)methanesulfonamide] | – | 0.2
8 | Cc1ccc(CS(=O)(=O)Nc2c(F)cc(Oc3ncccc3-c3ccnc(N[C@@H]4CNC[C@@H](F)C4)n3)c(F)c2F)cc1 [Compound 375, 1-p-Tolyl-N-(2,3,6-trifluoro-4-((3-(2-(((3S,5S)-5-fluoropiperidin-3-yl)amino)pyrimidin-4-yl)pyridin-2-yl)oxy)phenyl)methanesulfonamide] | – | 0.4
9 | O=S(=O)(CC12CCC(CC1)C2)Nc1c(F)cc(Oc2ncccc2-c2ccnc(N[C@@H]3CNC[C@@H](F)C3)n2)c(F)c1F [Compound 376, 1-(Bicyclo[2.2.1]heptan-1-yl)N-(2,3,6-trifluoro-4-((3-(2-(((3S,5S)-5-fluoropiperidin-3-yl)amino)pyrimidin-4-yl)pyridin-2-yl)oxy)phenyl)methanesulfonamide] | – | 0.2
10 | O=S(=O)(CC12CCC(CC1)CC2)Nc1c(F)cc(Oc2ncccc2-c2ccnc(N[C@@H]3CNC[C@@H](F)C3)n2)c(F)c1F [Compound 377, 1-(Bicyclo[2.2.2]octan-1-yl)-N-(2,3,6-trifluoro-4-((3-(2-(((3S,5S)-5-fluoropiperidin-3-yl)amino)pyrimidin-4-yl)pyridin-2-yl)oxy)phenyl)methanesulfonamide] | – | 0.8
11 | O=S(=O)(Cc1cc(F)ccc1F)Nc1c(F)cc(Oc2ncccc2-c2ccnc(N[C@@H]3CNC[C@@H](F)C3)n2)c(F)c1F [Compound 378, 1-(2,5-Difluorophenyl)-N-(2,3,6-trifluoro-4-((3-(2-(((3S,5S)-5-fluoropiperidin-3-yl)amino)pyrimidin-4-yl)pyridin-2-yl)oxy)phenyl)methanesulfonamide] | – | 1.1
12 | CC(c1ccc(C#N)cc1)S(=O)(=O)Nc1ccc(Oc2ncccc2-c2ccnc(N[C@H]3CCCNC3)n2)c(F)c1F (stereo partly drawn) [Compound 379, 1-(4-Cyanophenyl)-N-(2,3-difluoro-4-((3-(2-(((S)-piperidin-3-yl)amino)pyrimidin-4-yl)pyridin-2-yl)oxy)phenyl)ethane-1-sulfonamide] | – | 0.3
13 | COc1ccccc1CS(=O)(=O)Nc1ccc(Oc2ncccc2-c2ccnc(N[C@H]3CCCNC3)n2)c(F)c1F [Compound 380, (S)—N-(2,3-Difluoro-4-((3-(2-(piperidin-3-ylamino)pyrimidin-4-yl)pyridin-2-yl)oxy)phenyl)-1-(2-methoxyphenyl)methanesulfonamide] | – | 0.9
14 | O=S(=O)(Nc1ccc(Oc2ncccc2-c2ccnc(N[C@H]3CCCNC3)n2)c(F)c1F)C1c2ccccc2-c2ccccc21 [Compound 381, (S)—N-(2,3-Difluoro-4-((3-(2-(piperidin-3-ylamino)pyrimidin-4-yl)pyridin-2-yl)oxy)phenyl)-9H-fluorene-9-sulfonamide] | – | 1
15 | Cc1cccc(CS(=O)(=O)Nc2c(F)cc(Oc3ncccc3-c3ccnc(N[C@@H]4CNC[C@@H](F)C4)n3)c(F)c2F)c1 [Compound 383, 1-m-Tolyl-N-(2,3,6-trifluoro-4-((3-(2-(((3S,5S)-5-fluoropiperidin-3-yl)amino)pyrimidin-4-yl)pyridin-2-yl)oxy)phenyl)methanesulfonamide] | – | 0.7
16 | Cc1ccc(CS(=O)(=O)Nc2c(F)cc(Oc3ncccc3-c3ccnc(N[C@@H]4CNC[C@@H](F)C4)n3)c(F)c2F)c(F)c1 [Compound 384, 1-(2-Fluoro-4-methylphenyl)-N-(2,3,6-trifluoro-4-((3-(2-(((3S,5S)-5-fluoropiperidin-3-yl)amino)pyrimidin-4-yl)pyridin-2-yl)oxy)phenyl)methanesulfonamide] | – | 0.3
17 | COc1cccc(CS(=O)(=O)Nc2c(F)cc(Oc3ncccc3-c3ccnc(N[C@@H]4CNC[C@@H](F)C4)n3)c(F)c2F)c1 [Compound 385, 1-(3-Methoxyphenyl)-N-(2,3,6-trifluoro-4-((3-(2-(((3S,5S)-5-fluoropiperidin-3-yl)amino)pyrimidin-4-yl)pyridin-2-yl)oxy)phenyl)methanesulfonamide] | – | 0.2
18 | Cc1ccccc1CS(=O)(=O)Nc1c(F)cc(Oc2ncccc2-c2ccnc(N[C@@H]3CNC[C@@H](F)C3)n2)c(F)c1F [Compound 386, 1-o-Tolyl-N-(2,3,6-trifluoro-4-((3-(2-(((3S,5S)-5-fluoropiperidin-3-yl)amino)pyrimidin-4-yl)pyridin-2-yl)oxy)phenyl)methanesulfonamide] | – | 0.3
19 | O=S(=O)(Cc1cccnc1C(F)(F)F)Nc1c(F)cc(Oc2ncccc2-c2ccnc(N[C@@H]3CNC[C@@H](F)C3)n2)c(F)c1F [Compound 389, N-(2,3,6-Trifluoro-4-((3-(2-(((3S,5S)-5-fluoropiperidin-3-yl)amino)pyrimidin-4-yl)pyridin-2-yl)oxy)phenyl)-1-(2-(trifluoromethyl)pyridin-3-yl)methanesulfonamide] | – | 0.3

— US12071425B2 (Genentech, Inc., priority 2018, dated 2024)
